Experimental data taken from patent publication EP0060099A1, “Antiviral agents, their preparation and use” (BEECHAM GROUP PLC, priority 1981, dated 1982).
≈ marks a conversion by molar mass, not a printed value.

Columns and labels:
[1] = system: Herpes simplex type 1 virus (HFEM strain); experiment: Plaque reduction test in Vero cells infected with Herpes simplex type 1 virus; type: cell-based; conditions: Human alphaherpesvirus 1, 144 h, concentration causing a 50% reduction in the number of virus plaques formed, agarose overlay, 37°C for 6 days, read-out: PDD50 (the source's name)
Procedure: (§1) Vero (African Green Monkey Kidney) cells were grown to confluence in 6 well multidishes, each well being 3.5 cm in diameter'. The cells were incubated with Herpes simplex type 1 virus (HFEM strain) and overlaid with 0.5 mL of 0.9% agarose (w/v) in maintenance medium containing the test compound at a range of concentrations from […] in half-log dilution steps. The virus infected cultures were then incubated at 37°C for 6 days before fixing in 4% formaldehyde solution and staining with carbolfuchsin. The dishes were then examined to find that concentration of test compound causing a 50% reduction in the number of virus plaques formed (PDD50 value) and the minimum concentration of test compound which killed the cell monolayer, leaving a clear zone devoid of cells and virus plaques (MTD).

[2] = Toxicity to the cell monolayer in the plaque reduction test (MTD); type: cell-based, African Green Monkey; conditions: monkey, vero cells; minimum concentration which killed the cell monolayer; virus infected Vero cultures, 37°C for 6 days
Procedure: as §1

Row | SMILES | IC50 [1] [µg/mL] | MCC at 144 h [2] [µg/mL]
1 | O=c1nc2n(cc1/C=C/Br)[C@H]1C[C@H](O)[C@@H](CO2)O1 [1 (b), 2,5'-Anhydro-E-5-(2-bromovinyl)-2'-deoxyuridine] | 2.8 (≈ 8.89 µM) | > 50
2 | CC(=O)OC1CC2OC1COc1nc(=O)c(C=CBr)cn12 (stereo not shown) [2 (b), 3'-0-Acetyl-2,5'-anhydro-E-5-(2-bromovinyl)-2'-deoxyuridine] | 13.5 (≈ 37.8 µM) | > 100
